IC50 data for 1 compound are collected here from patent publication US10968214B2, “KRas G12C inhibitors” (Eli Lilly and Company, priority 2018, dated 2021).

The structures appear in SMILES notation. Where two headings read alike, the source gives them in different places.

Test [1] concerns the target T1, constitutive RAS GTPAse activity in H358 cells (Homo sapiens, UniProt P01116, G12C).
T1 construct: host or cells: H358 human lung cancer cells
As to the kind of experiment: H358 Cellular Active RAS GTPase ELISA. In kind it is cell-based. The conditions noted are these: 2 hr. The source says: This assay is used to measure the ability of test compounds to inhibit constitutive RAS GTPAse activity in human lung cancer cells H358 (ATCC CRL-5807). The RAS GTPase ELISA kit (Active Motif Cat #52097) contains a 96-well plate pre-coated with glutathione in order to capture a kit-supplied GST-Raf-RBD protein. Activated RAS (GTP-bound) in cell extracts specifically bind to the Raf-RBD. Bound RAS is detected with a primary antibody that recognizes human KRas. A secondary antibody conjugated with HRP recognizes the primary antibody and a development solution provides a chemiluminescent readout.
H358 cells are plated at 80,000 cells/well in 90 μL serum free media (RPMI 1640, GIBCO) and incubated overnight at 37° C./5% CO2. The next morning, 10 μL of serially-diluted (3-fold) test compounds (500 μM top concentration) and 10 μL of controls (Maximum signal wells: 5% DMSO and Minimum signal wells: 500 μM LSN3429410 as an inhibitor) are added to the cell plate and incubated for 2 hr at 37° C./5% CO2. Complete Lysis/Binding Buffer is prepared containing Protease Inhibitor cocktail and GST-Raf-RBD and stored on ice. One hour before cell plate incubation is completed, 50 μL of GST-Raf-RBD is diluted in lysis/binding buffer, and buffer is added to the ELISA assay plate and which is incubated for 1 hour at 4° C. with gently rocking. After 2 hr, the cells are washed with 100 μL ice-cold PBS and lysed with 100 μL lysis/binding buffer. The cell plate is shaken for 10 min at RT. The cell plate is then centrifuged at 1500 rpm for 10 min at RT. During this time, 1× Wash Buffer is prepared at RT and then is used to wash (3×100 μL) the GST-Raf-RBD coated assay plate. After washing, 50 μL of cell lysate is added to the GST-Raf-RBD coated assay plate and incubated for 1 hour at RT with gentle shaking. During this incubation period, 1× Antibody Binding Buffer is prepared and brought to RT. The assay plate is washed 3×100 μL with 1× Wash Buffer and then 50 μL of Primary Antibody (diluted 1:500 in 1× Antibody Binding buffer) is added. The plate is incubated for 1 hour at RT. The assay plate is washed 3×100 μl with 1× Wash Buffer and then 50 μL of Secondary Antibody (diluted 1:5000 in 1× Antibody Binding buffer) is added and incubated for 1 hour at RT. The assay plate is washed 4×100 μL with 1× Wash buffer and then 50 μL of chemiluminescent working solution is added at RT. The assay plate is then read on an EnVision™ Plate Reader (Perkin Elmer) using a luminescence program.
The signal is converted to percent inhibition using the following equation: % Inhibition=100−[(Test Compound Signal−Median Minimum Signal)/(Median Maximum Signal−Median Minimum Signal)×100]. The Maximum signal is a control well without inhibitor.
A general note: An ELISA detects its analyte on a solid surface through an enzyme-linked reagent.

The test system of a further test is LXFA-983L. As to the kind of experiment: Combination 4 day growth assay (Cell TiterGlo), LXFA-983L. In kind it is cell-based. The settings on record: LXFA 983L, 96 h, single treatment, read-out: Absolute IC50. The method, then: Cell lines for this study are obtained from ATCC and grown under ATCC recommended conditions, except for LXFA-983L, which is obtained from Oncotest/Charles Rivers Laboratories, Wilmington, Mass. and D122-96, which is obtained from L. Eisenbach (Weizman Institute of Science, Rehovot, Israel)—both grown under recommended conditions. […] The proliferation assay is performed as a 4 day growth assay using Cell TiterGlo® as the readout. Briefly, cells are plated in 96-well cell culture plates and allowed to adhere overnight at 37° C. The following day, cells are treated with compounds, either single treatments or combination treatments. First, the testing compounds are serially diluted in DMSO, followed by dilution into media as a 5× concentration with 1% DMSO, and finally added to cells in media to dilute to 1×. The cells are incubated at 37° C. for 4 more days. At the end of the incubation period, Cell TiterGlo® reagent is mixed and added to the wells. After 10 minutes, the luminescence is read by a Perkin Elmer Envision instrument. Absolute IC50 values generated by a 4-parameter logistics model for the single and combination treatments are generated, followed by combination indexes for each combination treatment and cell line. The combination IC50 values are adjusted based on the total concentration of each compound when added together. […] The combination index (CI) measures the degree to which the potency of a combination therapy differs from the expected-if-additive potency and is based on the Loewe definition of additivity.
[formula] Where • CAy and CBy are the concentrations of therapies A and B that produce an effect, y, when given in combination • ICAy and ICBy are the concentrations of A and B that produce an effect, y, when given individually The biological interpretation of the combination index is as follows: synergistic if the combination index <0.5, additive if the combination index is between 0.5 and 2, and antagonistic if the combination index is >2.
Background: ATP-based viability assays read luminescence as a measure of living cells.

T1 sequence (P01116 1-188 isoform P01116-2 G12C): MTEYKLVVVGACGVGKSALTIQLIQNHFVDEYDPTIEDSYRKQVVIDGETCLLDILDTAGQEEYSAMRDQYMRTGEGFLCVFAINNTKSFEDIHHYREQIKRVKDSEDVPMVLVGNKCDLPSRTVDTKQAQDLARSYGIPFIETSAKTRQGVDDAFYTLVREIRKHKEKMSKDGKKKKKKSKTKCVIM

In the case of `C=CC(=O)N1CCN(c2ncnc3c(F)c(-c4ccc(F)c5sc(N)nc45)c(Cl)cc23)CC1` [Example 1, 1-{4-[7-(2-Amino-7-fluoro-1,3-benzothiazol-4-yl)-6-chloro-8-fluoroquinazolin-4-yl]piperazin-1-yl}prop-2-en-1-one], the IC50 came to 37.1 nM in test [1] (read-out: RAS-GTP), 37 nM in test [1] (read-out: relative IC50) and 2590 nM in the test on LXFA-983L.
